Seven compounds from ChEMBL document CHEMBL1201862, “PubChem BioAssay data set” (2004) can be followed below.

Test systems include M14; SK-OV-3; KM12; K562; OVCAR-3; HOP-62; UACC-257; HCC 2998; MOLT-4; COLO 205; RPMI-8226; HL-60; UO-31; NCI-H460; SW-620; NCI-H522; RXF 393; HT-29; SK-MEL-28; UACC-62.
Holding throughout (assay): inhibition of tumour cell growth, NCI panel, 48 h

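Assay format: 96-well plates, 48-hour exposure. The concentration for 50% growth inhibition is given as GI50.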 The source made the active and inactive calls. Rule as the data show it: active = GI50 up to about 1.1 µM and inactive = higher. Some results are limits rather than exact numbers.

`Cn1cc(NC(=O)[C@H]2CCC(N)=N2)cc1C(=O)NCCC(=N)N`: the GI50 in the test on M14, in the test with SK-OV-3, in the test with KM12, in the test on K562, in the test with OVCAR-3 and in the test on HOP-62 was > 100 µM (inactive) each time. For the same compound, the GI50 in the test with UACC-257, in the test with HCC 2998, in the test with MOLT-4, in the test on COLO 205, with RPMI-8226 and in the test on HL-60 was > 100 µM (inactive) in each case. The GI50 with UO-31, with NCI-H460, in the test with SW-620, with NCI-H522, in the test with RXF 393 and in the test on HT-29 was > 100 µM (inactive) each time. The GI50 in the test on SK-MEL-28 and in the test on UACC-62 was > 100 µM (inactive) throughout.

With `CCOC(=O)NC(OCc1ccccc1)(C(=O)OC)C(F)(F)F` (centres undefined), the GI50 in the test with M14, with SK-OV-3, in the test with KM12, in the test on K562, with OVCAR-3 and in the test on UACC-257 was > 100 µM (inactive) in each case. Moreover, the GI50 with HCC 2998, in the test on MOLT-4, with COLO 205, with RPMI-8226, in the test on HL-60 and with UO-31 was > 100 µM (inactive) each time. In addition, the GI50 in the test on NCI-H460, with SW-620, with NCI-H522, with RXF 393, in the test on HT-29 and in the test on SK-MEL-28 was > 100 µM (inactive) throughout. In addition, the GI50 in the test on UACC-62 is > 100 µM (inactive).

Take `O=C(N/N=C/c1ccccc1)c1c(F)c(F)c(F)c(F)c1F`: the GI50 is 56.8 µM (inactive) with M14; > 100 µM (inactive) with SK-OV-3; 86.1 µM (inactive) in the test with KM12; > 100 µM (inactive) in the test with K562; > 100 µM (inactive) with OVCAR-3; > 100 µM (inactive) in the test with HOP-62. Besides, the GI50 in the test on UACC-257, in the test on HCC 2998, in the test with MOLT-4, in the test with COLO 205, with RPMI-8226 and with HL-60 was > 100 µM (inactive) each time. Further, the GI50 is > 100 µM (inactive) in the test on UO-31; > 100 µM (inactive) in the test with NCI-H460; 96.8 µM (inactive) in the test on SW-620; 23.3 µM (inactive) in the test on NCI-H522; > 100 µM (inactive) in the test with RXF 393; 54.2 µM (inactive) in the test on HT-29. Also, the GI50 was > 100 µM (inactive) in the test on SK-MEL-28 and 33.3 µM (inactive) in the test on UACC-62.

Turning to `CCOC(=O)c1c(C)n(-c2ccc(C)cc2)c(=O)c2ccccc2c(=O)c2c(=O)ccc(=O)c1=2`, the GI50 in the test with M14 is 20.4 µM (inactive); in the test with SK-OV-3, 27 µM (inactive); in the test with KM12, 13.6 µM (inactive); with K562, 15.2 µM (inactive); with OVCAR-3, 16.2 µM (inactive); in the test on HOP-62, 18.8 µM (inactive). The GI50 is 18.5 µM (inactive) with UACC-257; 14.3 µM (inactive) with HCC 2998; 2.87 µM (inactive) in the test on MOLT-4; 15.2 µM (inactive) in the test with COLO 205; 4.7 µM (inactive) in the test on RPMI-8226; 14.1 µM (inactive) in the test with HL-60. The GI50 is 23.4 µM (inactive) in the test with UO-31; 19.4 µM (inactive) with NCI-H460; 25.6 µM (inactive) in the test with SW-620; 18.3 µM (inactive) in the test on NCI-H522; 17.4 µM (inactive) with RXF 393; 12.2 µM (inactive) in the test with HT-29. The GI50 was 12.2 µM (inactive) with SK-MEL-28 and 19.6 µM (inactive) in the test on UACC-62.

With `Fc1ccc2c(c1)SC1=Nc3sc4cc(F)ccc4[n+]3CN12`, the GI50 in the test on M14 is 25.8 µM (inactive); in the test on SK-OV-3, 22.4 µM (inactive); with K562, 14.3 µM (inactive); with OVCAR-3 it was 14.3 µM (inactive); in the test with HOP-62 it was 19.5 µM (inactive); in the test with UACC-257, 18.9 µM (inactive). For the same compound, the GI50 with HCC 2998 is 10.5 µM (inactive); in the test on COLO 205 it was 26.9 µM (inactive); with RPMI-8226, 0.437 µM (active); in the test on HL-60, < 0.01 µM (active); in the test with UO-31, 19.1 µM (inactive); with NCI-H460 it was 25.5 µM (inactive). The GI50 is 27.3 µM (inactive) with SW-620; 12.1 µM (inactive) in the test on NCI-H522; 26.5 µM (inactive) in the test with RXF 393; 28.8 µM (inactive) in the test with HT-29; 39.6 µM (inactive) in the test on SK-MEL-28; 11.1 µM (inactive) with UACC-62.

`COC(=O)c1ccc(CN2CCc3c([nH]c4ccccc34)C2CO)o1` (centres undefined): the GI50 with M14, with SK-OV-3, with KM12, with K562, with OVCAR-3 and in the test with HOP-62 was > 10 µM (inactive) each time. In addition, the GI50 in the test on UACC-257, in the test on HCC 2998, with MOLT-4, with COLO 205, in the test with RPMI-8226 and with HL-60 was > 10 µM (inactive) each time. The GI50 in the test on SW-620, with NCI-H522, in the test on RXF 393, with HT-29, with SK-MEL-28 and with UACC-62 was > 10 µM (inactive) in each case.

For `COC(=O)C(C/C=C(\C)c1ccc(Cl)cc1)C(C)=O` (centres undefined), the GI50 with SK-OV-3 was > 100 µM (inactive); in the test with KM12, 37 µM (inactive); with K562, 36.4 µM (inactive); in the test with OVCAR-3, 32.4 µM (inactive); in the test with HOP-62, > 56 µM (inactive); in the test with UACC-257, 23 µM (inactive). Further, the GI50 with HCC 2998 was 75.9 µM (inactive); in the test with MOLT-4 it was 17.9 µM (inactive); in the test on COLO 205 it was 59.8 µM (inactive); with RPMI-8226, 24.2 µM (inactive); with HL-60 it was 14.6 µM (inactive); in the test on UO-31 it was 22.9 µM (inactive). Moreover, the GI50 in the test on NCI-H460 was > 100 µM (inactive); in the test on SW-620 it was 50.9 µM (inactive); in the test on NCI-H522, 22.5 µM (inactive); with RXF 393 it was 26.7 µM (inactive); with HT-29, 32.3 µM (inactive); in the test on SK-MEL-28, 61.5 µM (inactive). Besides, in the test with UACC-62, the GI50 was 38.5 µM (inactive).
